Laboratory results: patent US20240408073A1, “METHODS FOR TREATING A TRAUMA PATIENT” (Beth Israel Deaconess Medical Center, Inc., priority 2021, published 2024)

Experiments:
[1] = test system: PMN; assay: PMN CTX (chemotaxis) transwell assay; type: cell-based, human
Experimental: Human PMN were isolated from freshly withdrawn peripheral blood of healthy volunteers, as described previously. In brief, heparinized whole blood (10 U/ml) was centrifuged at 200×g for 10 min. The buffy coat and RBC were layered onto 1-Step Polymorphs (AN221725, Accurate Chemical & Scientific Corp, Carle Place, NY, USA), followed by centrifugation at 500×g for 30 min. The PMN layer was collected and diluted with an equal volume of 0.45% NaCl to restore osmolarity for 5 min at room temperature. The suspensions were then washed in RPMI 1640 and centrifuged at 200×g for 10 min. RBC in pellet were lysed with ice-cold 0.2% NaCl for 20 sec and the same volume of 1.6% NaCl was applied to end lysis. Cells were centrifuged again at 200×g for 10 min to collect PMN. PMN were resuspended in physiological solutions depending on the next functional study.
CTX assay PMN CTX was studied in […]. 1×10^5 PMN in 75 μL of RPMI with 2% heat-inactivated FBS were applied to the upper chamber and 150 μL of the same media containing indicated chemoattractants were applied to the lower chamber. mtDNA application was done at RT, rotating for 15 min. […] Cells were incubated (37° C., 5% CO2) for 60 min. PMN were then collected from the lower chambers, centrifuged (500×g, 5 min, RT) and re-suspended in 200 μL of cell lysis solution (×1/20) with CyQUANT GR dye (×1/400) in water for 15 min at RT (C7026, Thermo Fisher Scientific). PMN numbers were evaluated in 96-well plates using 480 nm excitation and 520 nm emission with known numbers of PMN for standard curve.

[2] = test system: cortactin; assay: Western blot of acetylated cortactin in PMN; type: cell-based, human; settings: PAR in conjunction with mtDNA; FIG. 3H
Experimental: Briefly, PMN samples were dissolved in Pierce RIPA lysis buffer (25 mM Tris HCl pH 7.6, 150 mM NaCl, 1% NP-40, 1% sodium deoxycholate, 0.1% SDS) (Thermo Fisher Scientific, Waltham, MA, USA) containing Halt Protease & Phosphatase Inhibitor Cocktail (Thermo Fisher Scientific) for 20 min on ice, followed by centrifugation at […] for 20 min at 4° C. Then, the supernatant was collected, concentration was measured using a Pierce BCA Protein Assay Kit (Thermo Fisher Scientific). After mixing and boiling (95° C., 10 min) protein lysate with appropriate amount of 6×Laemmli SDS-sample buffer (J61337, Alfa Aesar, Tewksbury, MA, USA) according to the protein concentration, 40 μg of protein lysates were separated by SDS/PAGE and transferred to nitrocellulose membranes contained in an iBlot Transfer Stack kit (IB301002, Thermo Fisher Scientific). […] After being incubated with their appropriate secondary antibodies conjugated with horseradish peroxidase (HRP) the following day, the immunoblot signals were detected by application of the Amersham ECL Prime Western Blotting Detection Reagent kit (Cytiva, Marlborough, MA, USA) in a ChemiDoc Imaging System (Bio-Rad, Hercules, CA, USA). Quantification of blots were performed using Image J v.1.53i (National Institute of Health, Bethesda, MD, USA).

[3] = test system: human PMN; assay: Bacterial phagocytosis assay by flow cytometry; type: cell-based; settings: drug 30 min, then mtDNA 15 min; FIG. 4A
[4] = test system: human PMN; assay: Bacterial phagocytosis assay by colony-forming unit (CFU) count; type: cell-based; settings: drug 30 min, then mtDNA 15 min; for PMN uptake of Sa in co-culture suppressed by mtDNA (PMN lysis/agar plate): FIG. 4B; for Sa killing / clearance of Sa from co-culture media suppressed by mtDNA: FIG. 4C
Experimental: Before the CFU count of bacteria, Staphylococcus aureus (Sa) were opsonized with autologous serum from the PMN donor. OD600=0.1 were determined as 10^8 CFU/mL according to previous measurements. […] Then, Sa were incubated with PMN at 1:1 ratio in 1 mL 0.9% NaCl supplemented with human serum for 30 min rotating. […] The supernatant was collected separately, centrifuged at 5000×g for 10 min to pellet bacteria. The bacteria were applied on agar plates and after 18 hrs the bacterial colonies were counted.

[5] = test system: human PMN; assay: Actin polymerization assay by rhodamine phalloidin staining; type: cell-based; settings: FIG. 5
Experimental: Actin polymerization was studied using an F-Actin Visualization Biochem Kit (Cytoskeleton, Inc., Denver, CO, USA) according to the manufacturer's instructions. Briefly, PMN were applied to glass slides (Thermo Fisher Scientific) pre-coated with 0.1% poly-L-lysine solution ([…], MilliporeSigma) in H2O. Then 200 μL of Fixative solution was added to the slides and incubated for 10 min at RT. After washing with 200 μL of Wash buffer for 30 sec at RT, 200 μL of Permeabilization Buffer was added to the slides and incubated for 5 min at RT. Then, the cells were stained with rhodamine phalloidin for 30 min at RT in dark. The slides were then washed with Wash buffer and Hoechst 33342 (1:1,000 in PBS) was applied to stain nucleus. Followed by 3 times of washing, 20 μL of Mounting medium was added to the center of each slide and a coverslip was put on. Clear nail polish was used to seal coverslips. The actin filaments were observed using AxioImager Epifluorescence Microscope (Zeiss, Jena, Germany) at excitation 535 nm and emission 585 nm.

[6] = test system: Staphylococcus aureus; assay: Mouse trauma (laparotomy + liver crush) plus intratracheal Staphylococcus aureus lung infection; type: in vivo, CD-1 mice; settings: PAR 20 mg/kg
Experimental: Following 48 hr acclimatization, 8-9 week-old male CD-1 mice (body weight 30-32 g) underwent laparotomy followed by crushing of the left lobe of liver 8 times using a sterile forceps. […] Mice were sacrificed 18 h later and bronchoalveolar lavage (BAL) fluid (BALF) was collected by tracheal irrigation with 1 mL of PBS. The collected BALF was centrifuged; the pellet was diluted to count the number of immune cells; and the supernatant was then separated and applied to agar plates to count the remaining bacteria. Experiments were repeated as noted and data were combined.

[7] = test system: PMN; assay: PMN respiratory burst in trauma patient plasma; type: cell-based, human; settings: FIG. 9E
[8] = test system: PMN; assay: NETosis of PMN incubated with trauma plasma, induced by PMA; type: cell-based, human; settings: post-treatment 30 min after plasma, FIG. 9F
[9] = test system: Formyl Peptide Receptor-1 (FPR1); assay: Flow cytometry for surface expression of FPR1 on human PMN; type: cell-based; settings: FIG. 9G
Experimental: Finally, PMN were incubated with fluorescein (FITC)-conjugated anti-human FPR1 antibody (FAB3744F, LifeSpan BioSciences Inc., Seattle, WA), phycoerythrin (PE)-conjugated anti-human CXCR2 antibody (FAB331P, LifeSpan BioSciences Inc.), or PE-conjugated anti-human BLT1 antibody (FAB099P, LifeSpan BioSciences Inc.) in the dark for 30 min at room temperature. FITC-conjugated isotype antibody (400210, BioLegend, San Diego, CA) or PE-conjugated isotype antibody (400212, BioLegend) was used as a negative control. Allophycocyanin (APC)—conjugated anti-human CD16 antibody (360705, BioLegend) was used to confirm PMN identification.

[10] = cited from earlier work; for Drug-drug interactions: VAL with PAR, clinical settings; for Bioavailability: both by parenteral and enteral routes
[11] = biological target: T1, HDAC6 (Homo sapiens, UniProt Q9UBN7); assay: HDAC6 activation
T1 construct: endogenous in cells; host or cells: PMN
T1 sequence (Q9UBN7 1-1215): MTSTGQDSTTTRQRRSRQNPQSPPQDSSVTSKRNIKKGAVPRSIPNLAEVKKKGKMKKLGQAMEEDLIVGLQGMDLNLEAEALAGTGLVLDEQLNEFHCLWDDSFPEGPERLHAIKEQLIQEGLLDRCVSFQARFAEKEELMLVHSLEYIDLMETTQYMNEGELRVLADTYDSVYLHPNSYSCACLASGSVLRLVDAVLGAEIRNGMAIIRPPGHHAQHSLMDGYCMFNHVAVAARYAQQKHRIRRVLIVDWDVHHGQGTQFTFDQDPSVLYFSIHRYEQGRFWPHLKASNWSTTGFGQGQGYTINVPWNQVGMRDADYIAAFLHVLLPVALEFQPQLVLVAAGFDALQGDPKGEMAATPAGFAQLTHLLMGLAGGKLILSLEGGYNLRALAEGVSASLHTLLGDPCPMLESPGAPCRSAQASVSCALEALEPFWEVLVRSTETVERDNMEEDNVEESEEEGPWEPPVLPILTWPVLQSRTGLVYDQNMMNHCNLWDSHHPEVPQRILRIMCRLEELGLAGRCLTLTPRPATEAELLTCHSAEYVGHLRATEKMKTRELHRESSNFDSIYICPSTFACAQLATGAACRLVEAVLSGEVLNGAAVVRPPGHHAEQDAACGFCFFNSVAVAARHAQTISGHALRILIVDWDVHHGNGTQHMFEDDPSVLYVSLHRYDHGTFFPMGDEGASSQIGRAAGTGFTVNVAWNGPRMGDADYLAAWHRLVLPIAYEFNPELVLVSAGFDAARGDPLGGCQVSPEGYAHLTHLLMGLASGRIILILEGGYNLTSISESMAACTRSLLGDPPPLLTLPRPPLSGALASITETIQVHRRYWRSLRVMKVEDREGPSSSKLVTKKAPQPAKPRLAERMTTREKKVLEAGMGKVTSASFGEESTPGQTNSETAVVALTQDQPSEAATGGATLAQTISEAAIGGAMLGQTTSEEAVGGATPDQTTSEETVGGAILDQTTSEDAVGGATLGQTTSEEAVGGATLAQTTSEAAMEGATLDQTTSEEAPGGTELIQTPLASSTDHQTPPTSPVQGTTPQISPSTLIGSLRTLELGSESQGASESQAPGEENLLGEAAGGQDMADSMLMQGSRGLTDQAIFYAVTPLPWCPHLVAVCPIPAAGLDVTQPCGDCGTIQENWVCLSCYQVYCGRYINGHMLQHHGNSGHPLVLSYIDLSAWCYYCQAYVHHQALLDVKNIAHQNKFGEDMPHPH

[12] = inhibitor 30 min prior to mtDNA, N=6

| FPR1 surface expression suppressed by ND6 [9] | Activation of HDAC6 [11] | SMILES | Suppressive effect of mtDNA on PMN chemotaxis ([1]; FIG. 1B, dependence on endosomal acidification) | mtDNA-induced suppression of PMN CTX to GRO-α [1, 12] | mtDNA-induced suppression of PMN CTX to LTB4 [1, 12] | Suppression of PMN CTX to LTB4 after ND6 exposure ([1]; N=6) | Acetylated cortactin (ac-cortactin) level [2] | Phagocytosis of SYTO9 labeled Staphylococcus aureus by human PMN suppressed by mtDNA (flow cytometry) [3] | PMN uptake of Sa in co-culture suppressed by mtDNA (PMN lysis/agar plate) [4] | Sa killing / clearance of Sa from co-culture media suppressed by mtDNA [4] | F-actin polymerization response to LTB4 inhibited by mtDNA [5] | Lung bacterial clearance (Sa CFU in BAL, % of uninjured controls) ([6]; post-treatment i.p. 30 min post-injury, VPA 80 mg/kg, alone or combined) | Lung bacterial clearance (Sa CFU in BAL) ([6]; pre-treatment i.p. 30 min prior to injury, Sa i.t. 4 h after trauma) | PMN respiratory burst (RB) suppressed by trauma plasma ([7]; post-treatment) | PMN respiratory burst (RB) suppressed by trauma plasma ([7]; pre-treatment) | NET formation (NETosis) suppressed by trauma plasma [8] | Drug-drug interactions [10] | Bioavailability [10] | PMN CTX in the presence of mtDNA [1] | T1/2 of elimination ([10]; human, in vivo) [h] |
| --- | --- | --- | --- | --- | --- | --- | --- | --- | --- | --- | --- | --- | --- | --- | --- | --- | --- | --- | --- | --- |
|  |  | CCN(CC)CCCC(C)Nc1ccnc2cc(Cl)ccc12 (stereo not drawn) [CQ, chloroquine] | blocked |  |  |  |  |  |  |  |  |  |  |  |  |  |  |  |  |  |
|  |  | COC(=O)c1ccc(C=Cc2ccc([N+](=O)[O-])o2)o1 [GRKi, methyl 5-[2-(5-nitro-2-furyl)vinyl]-2-furoate] |  | rescued | rescued |  |  |  |  |  |  |  |  |  |  |  |  |  |  |  |
| diminish FPR1 regulation by ND6 |  | Fc1ccc([C@@H]2CCNC[C@H]2COc2ccc3c(c2)OCO3)cc1 [PAR, paroxetine] |  |  | rescued | rescued | blocks mtDNA suppression of ac-cortactin | restored phagocytosis | restored phagocytosis | restored Sa killing | rescued | did not confer significant protection | significantly prevented infection | ineffective | can rescue RB | minor reversals | no drug-drug interactions | excellent |  |  |
| diminish FPR1 regulation by ND6 | blocks activation of HDAC6 | CCCC(CCC)C(=O)O [VPA, valproic acid] |  |  |  |  |  | reverse mtDNA-mediated suppressive effects on bacterial phagocytosis and killing | reverse mtDNA-mediated suppressive effects on bacterial phagocytosis and killing | reverse mtDNA-mediated suppressive effects on bacterial phagocytosis and killing | rescued |  |  | ineffective |  | minor reversals | no drug-drug interactions | excellent | rescued | 8 to 17 |
